Source: patent US6569839B1, “Fast-acting pharmaceutical compositions and methods of use” (priority 1998, dated 2003)

Assays:
[1] = in vivo
[2] = test system: gram negative organisms and many gram positive organisms which include staphylococcus aureus and staphylococcus epidermidis; conditions: cited from earlier work
[3] = 1000 units of Heparin with 1 gm of Cefazolin; cited from earlier work
[4] = Absorption of antibiotic from the treated wound; assay type: in vivo; conditions: administered to the wound over 24 hour period
Experimental: In an embodiment of the present invention, a medicinal solution comprising Chloramphenicol can be prepared such that the patient receives only about 1-½ gm in a 24 hour period. Thus, if 100% was absorbed during the 24 hour period while treating a wound as, for example, following a total knee arthroplasty, the administered 1 ½ gm over a 24 hour is a safe dose, in fact, for three days. Since, however, only approximately 40% of the antibiotic is typically absorbed, the amount that is available to the bone marrow is, thus, very small. For patients with blood dyscrasias a dose of about 2 gm of Cephalosporin or a dose of about 1 gm Septaz can be used in place of a dose of about 1 g of Chloramphenicol for the 24 hour period.

[5] = test system: common bone and joint infections; conditions: cited from earlier work
[6] = 1 gm interoperatively; total hip or knee joint replacements; 95% without steroid; cited from earlier work
[7] = 50 to 100 mg I.V. over a 40 to 120 second period; cited from earlier work
[8] = I.V. every 90 minutes; cited from earlier work
[9] = 0.5%, continuous perineural infusion around the major nerve; cited from earlier work

For `CCCCN1CCCCC1C(=O)Nc1c(C)cccc1C` (centres unmarked) [Marcaine], the “complications if dosage is not strictly monitored” value [1] was “critical complications can occur”.

For `CC(C)(O/N=C(\C(=O)N[C@@H]1C(=O)N2C(C(=O)[O-])=C(C[n+]3ccccc3)CS[C@H]12)c1csc(N)n1)C(=O)O` [Ceftazidime], the Bacterial coverage [2] is given as “very good”.

In the case of `Cc1nnc(SCC2=C(C(=O)O)N3C(=O)[C@@H](NC(=O)Cn4cnnn4)[C@H]3SC2)s1` [Cefazolin], the time compatible [3] is listed as 24 h.

In the case of `O=C(N[C@H](CO)[C@H](O)c1ccc([N+](=O)[O-])cc1)C(Cl)Cl` [Chloramphenicol], the “fraction of the antibiotic typically absorbed” value [4] is given as “approximately 40%”, the “effectiveness as broad-spectrum antibiotic” value ([5]; against the common bone and joint infections) is given as “very effective” and the reported blood toxicity ([5]; in vivo) is given as “aplastic anemia and other blood problems”.

In the case of `C[C@]12CCC(=O)C=C1CC[C@@H]1[C@@H]2[C@@H](O)C[C@@]2(C)[C@H]1CC[C@]2(O)C(=O)COC(=O)CCC(=O)O` [Solu-Cortef, Hydrocortisone sodium succinate], the “patients who experienced pain with interoperative steroid administration” value [6] is listed as 33%.

For `C[C@H]1C[C@@H]2[C@H]([C@@H](O)C[C@@]3(C)[C@H]2CC[C@]3(O)C(=O)COC(=O)CCC(=O)O)[C@@]2(C)C=CC(=O)C=C12` [Solumedrol], the “patients who experienced pain with interoperative steroid administration” value [6] is given as 33%.

In the case of `CCN(CC)CC(=O)Nc1c(C)cccc1C` [Lidocaine], the ill effects [7] is listed as “without ill effects” and the maximum suggested dose [8] is listed as “about 300 mg”.

For `CCCCN1CCCCC1C(=O)Nc1c(C)cccc1C` (centres unmarked) [Bupicocaine], the relief of pain [9] is given as “good relief of pain”.
